According to PMC3525188, “Assessment of Anticholinesterase Activity of Gelidiella acerosa: Implications for Its Therapeutic Potential against Alzheimer's Disease” (Evidence-based Complementary and Alternative Medicine : eCAM, 2012):

How the values were obtained:
[1] = molecular target: T1, horse serum BuChE (EC 3.1.1.8) (Equus caballus, UniProt P81908); assay: Ellman assay, Lineweaver-Burk plot, EZ-Fit; type: biochemical; settings: control without extract, 0.05 M Tris-HCl pH 8.0, RT; unreliable (printed unit nM implausible beside mM substrate)
T1 construct: gene BCHE; commercial native enzyme from horse serum, Sigma
From the text: Ellman assay, Lineweaver-Burk plot, EZ-Fit on horse serum BuChE (EC 3.1.1.8)

[2] = molecular target: T2, Electric eel AChE (Type-VI-S, EC 3.1.1.7) (Electrophorus electricus, UniProt O42275); assay: Ellman assay, Lineweaver-Burk plot, EZ-Fit; type: biochemical; settings: control without extract, 0.05 M Tris-HCl pH 8.0, RT; unreliable (printed unit nM implausible beside mM substrate)
T2 construct: commercial native enzyme, Sigma Type VI-S
From the text: Ellman assay, Lineweaver-Burk plot, EZ-Fit on Electric eel AChE (Type-VI-S, EC 3.1.1.7)

T1 sequence (P81908 whole entry): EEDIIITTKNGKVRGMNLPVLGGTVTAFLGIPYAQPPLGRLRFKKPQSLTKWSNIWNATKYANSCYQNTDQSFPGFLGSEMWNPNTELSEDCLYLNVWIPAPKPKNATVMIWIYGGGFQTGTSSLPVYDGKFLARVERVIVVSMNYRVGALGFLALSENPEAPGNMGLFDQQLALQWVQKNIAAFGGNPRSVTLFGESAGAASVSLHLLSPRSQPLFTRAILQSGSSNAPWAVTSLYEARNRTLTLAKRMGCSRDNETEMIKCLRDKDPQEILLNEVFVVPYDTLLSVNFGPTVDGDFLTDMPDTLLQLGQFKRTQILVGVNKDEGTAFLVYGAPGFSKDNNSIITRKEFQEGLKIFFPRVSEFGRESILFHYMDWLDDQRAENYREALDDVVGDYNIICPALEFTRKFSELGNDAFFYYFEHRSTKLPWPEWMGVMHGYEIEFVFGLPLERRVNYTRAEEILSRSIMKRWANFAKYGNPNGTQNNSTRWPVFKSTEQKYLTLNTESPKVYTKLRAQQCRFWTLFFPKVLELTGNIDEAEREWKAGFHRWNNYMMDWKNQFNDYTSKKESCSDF
T2 sequence (O42275 24-633): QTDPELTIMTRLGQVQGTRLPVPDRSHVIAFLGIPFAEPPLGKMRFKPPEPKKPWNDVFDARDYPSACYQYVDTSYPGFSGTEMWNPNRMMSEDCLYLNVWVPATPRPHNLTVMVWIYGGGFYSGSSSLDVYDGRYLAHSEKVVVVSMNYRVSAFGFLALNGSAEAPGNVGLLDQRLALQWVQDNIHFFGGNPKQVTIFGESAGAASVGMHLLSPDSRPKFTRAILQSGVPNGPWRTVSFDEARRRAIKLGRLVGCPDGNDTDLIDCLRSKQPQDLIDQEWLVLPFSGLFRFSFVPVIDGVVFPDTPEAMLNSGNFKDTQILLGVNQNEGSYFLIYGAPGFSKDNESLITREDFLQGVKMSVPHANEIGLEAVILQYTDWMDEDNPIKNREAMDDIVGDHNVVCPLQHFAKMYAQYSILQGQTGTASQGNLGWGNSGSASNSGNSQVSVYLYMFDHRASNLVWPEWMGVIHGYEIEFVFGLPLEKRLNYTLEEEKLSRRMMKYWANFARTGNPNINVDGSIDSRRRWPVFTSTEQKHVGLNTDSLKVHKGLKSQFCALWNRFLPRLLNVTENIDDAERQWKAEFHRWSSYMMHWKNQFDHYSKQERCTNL

## CCCC(=O)SCC[N+](C)(C)C [butyrylthiocholine iodide]
[1]
  BuChE / Control: 3.12 ± 0.87 nM

## CC(=O)SCC[N+](C)(C)C [acetylthiocholine iodide]
[2]
  AChE / Control: 0.8774 ± 0.41 nM
